In patent publication US20250296929A1, “NOVEL HEPATOSELECTIVE POLYADENYLATING POLYMERASES INHIBITORS AND THEIR METHOD OF USE” (BARUCH S. BLUMBERG INSTITUTE, priority 2021, published 2025):
Values joined by “and” are separate entries in the source; they are usually repeats but may differ in a detail not shown here. Equal values may be shown once. Read-outs that look alike come from different tables or passages of the source.

How the values were obtained:
[1] = Pharmacokinetics after 3 mg/kg IV administration, plasma; type: in vivo, CD1 mice
Description: (§1) Protocol for pharmacokinetic and tissue distribution studies. The pharmacokinetics of the compounds was studied in CD1 mice after intravenous (IV) and oral gavage (PO) administration. Mouse PK studies was conducted at 3 mg/kg (IV) and 8 mg/kg (PO). Plasma samples obtained from dosed animals, at ten time points, including 5, 15 and 30 minutes and 1, 1.5, 2, 4, 6, 8 and 24 hr post-dose for processing to plasma, were prepared for analysis by means of a single step protein precipitation technique, by adding 200 μL of acetonitrile containing an IS mixture (labetalol, imipramine and diclofenac) to 50 μL aliquots of individual subject samples. Samples were mixed by vortex for homogeneity and then subjected to centrifugation at 4000 rpm for 10 min. The supernatant (200 μL) was collected and injected into the LC-MS/MS for analysis. Pharmacokinetic parameters will be calculated using established non-compartmental methods. The liver distribution of the compounds was studied in the PO group and liver tissues were collected at each time point after PO administration. Accurately weighed whole liver tissues were collected in a 50 mL tube, and 3 volumes per weight of water will be added. Tissue samples were homogenized and 50 μL of the homogenates will be processed along with plasma samples as described above.

OATP1B3 = target: T1, OATP1B3 (Homo sapiens, UniProt Q9NPD5); test: OATP1B3 transporter substrate uptake in OATP1B3-HEK293 cells; type: in vitro ADME; conditions: test concentration 1 μM
T1 construct: expressed in transfected cells; host or cells: HEK293
T1 sequence (Q9NPD5 1-702): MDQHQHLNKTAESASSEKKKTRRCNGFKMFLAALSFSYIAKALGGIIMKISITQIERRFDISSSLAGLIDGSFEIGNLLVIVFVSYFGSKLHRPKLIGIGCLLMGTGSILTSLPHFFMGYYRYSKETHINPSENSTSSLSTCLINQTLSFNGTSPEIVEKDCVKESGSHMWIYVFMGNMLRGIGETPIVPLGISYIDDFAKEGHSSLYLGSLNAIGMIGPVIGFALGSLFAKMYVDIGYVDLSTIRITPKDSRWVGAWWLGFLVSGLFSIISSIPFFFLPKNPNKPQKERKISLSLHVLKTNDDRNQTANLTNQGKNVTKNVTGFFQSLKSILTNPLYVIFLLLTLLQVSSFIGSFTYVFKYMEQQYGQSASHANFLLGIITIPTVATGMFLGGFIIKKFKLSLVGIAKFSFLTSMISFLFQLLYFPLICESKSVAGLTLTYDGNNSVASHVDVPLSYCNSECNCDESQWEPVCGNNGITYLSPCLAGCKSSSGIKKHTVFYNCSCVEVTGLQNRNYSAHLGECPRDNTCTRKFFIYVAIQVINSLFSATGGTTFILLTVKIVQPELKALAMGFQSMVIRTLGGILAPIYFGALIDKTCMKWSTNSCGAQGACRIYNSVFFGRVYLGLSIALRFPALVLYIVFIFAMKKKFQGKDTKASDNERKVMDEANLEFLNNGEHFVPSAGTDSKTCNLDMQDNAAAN
Description: Protocol for identification of compounds that are substrates of transporters OATP1B1 and OATP1B3. Transfected HTEK293 and vector control HTEK293 cells were cultured in 24-well poly-D-lysine or collagen-coated tissue culture plates ([…]) for 2 and 10 minutes respectively in transport buffer (HIBSSg, pH 7.4, pre-warmed to 37° C.). At a defined time point, the uptake experiments were stopped by removing dosing solution followed by two washes of ice-cold HIBSSg buffer. The cells were lysed for 2 minutes with […] containing an appropriate internal standard (when available). Lysis buffer were chilled to −20° C., and the plate was kept on ice during lysis. The cell lysate was transferred into a 96-well plate for sample analysis with LC-MS/MS analysis to determine concentration of test compound in cell lysate. The uptake of test compounds was normalized by total cell protein using the BCA Protein Assay Kit following the manufacturer's protocol. The inhibitor Rifamycin SV was used to block OATP1B1 and OATP1B3 transporter activity in order to determine uptake ratios.

[2] = Liver distribution after 8 mg/kg oral dose (liver vs plasma); type: in vivo, CD1 mice
Description: as §1

[3] = CD1, mouse, plasma, iv, 3 mg/kg, individual mice
[4] = CD1, mouse, plasma, iv, 3 mg/kg, mean

SMILES: COc1cc2c(cc1OCCCCCCC(=O)O)C[C@@H](C(C)C)n1cc(C(=O)O)c(=O)cc1-2 [Example 6, (S)-9-((6-carboxyhexyl)oxy)-6-isopropyl-10-methoxy-2-oxo-6,7-dihydro-2H-pyrido[2,1-a]isoquinoline-3-carboxylic acid]
- Plasma concentration ([1]; 5 min, individual mice): 979 ng/mL and 689 ng/mL
- Plasma concentration ([1]; 0.25 h, individual mice): 103 ng/mL and 73.0 ng/mL
- Plasma concentration ([1]; 0.5 h, individual mice): 31.7 ng/mL and 24.9 ng/mL
- Plasma concentration ([1]; 1 h, individual mice): 8.52 ng/mL and 6.79 ng/mL
- Plasma concentration ([1]; 2 h, individual mice): 5.61 ng/mL and 5.51 ng/mL and 2.14 ng/mL
- Plasma concentration ([1]; 4 h, individual mice): 1.69 ng/mL and BLOQ
- Plasma concentration ([1]; 8 h, individual mice): BLOQ
- Plasma concentration ([1]; 24 h, individual mice): BLOQ
- concentration at 5 min ([1]; CD1, mouse, plasma, intravenous, 3 mg/kg, 5 min, individual mice, read-out: Plasma concentration): 817 ng/mL
- concentration at 5 min ([1]; CD1, mouse, plasma, intravenous, 3 mg/kg, 5 min, mean, read-out: Mean plasma concentration): 828 ng/mL
- concentration at 0.25 h ([1]; CD1, mouse, plasma, intravenous, 3 mg/kg, 0.25 h, individual mice, read-out: Plasma concentration): 82.3 ng/mL
- concentration at 0.25 h ([1]; CD1, mouse, plasma, intravenous, 3 mg/kg, 0.25 h, mean, read-out: Mean plasma concentration): 86 ng/mL
- concentration at 0.5 h ([1]; CD1, mouse, plasma, intravenous, 3 mg/kg, 0.5 h, individual mice, read-out: Plasma concentration): 32.8 ng/mL
- concentration at 0.5 h ([1]; CD1, mouse, plasma, intravenous, 3 mg/kg, 0.5 h, mean, read-out: Mean plasma concentration): 29.8 ng/mL
- concentration at 1 h ([1]; CD1, mouse, plasma, intravenous, 3 mg/kg, 1 h, individual mice, read-out: Plasma concentration): 11.4 ng/mL
- concentration at 1 h ([1]; CD1, mouse, plasma, intravenous, 3 mg/kg, 1 h, mean, read-out: Mean plasma concentration): 8.9 ng/mL
- concentration at 2 h ([1]; CD1, mouse, plasma, intravenous, 3 mg/kg, 2 h, mean): 4.42 ng/mL
- concentration at 4 h ([1]; CD1, mouse, plasma, intravenous, 3 mg/kg, 4 h, individual mice, read-out: Plasma concentration): 1.85 ng/mL
- concentration at 4 h ([1]; CD1, mouse, plasma, intravenous, 3 mg/kg, 4 h, mean, read-out: Mean plasma concentration): 1.77 ng/mL
- concentration at 8 h ([1]; CD1, mouse, plasma, intravenous, 3 mg/kg, 8 h, individual mice): 1.08 ng/mL
- AUC(0-inf) [1, 3]: 268 ng·h/mL
- AUC(0-t) [1, 3]: 263 ng·h/mL
- C0 ([1]; CD1, mouse, plasma, iv, 3 mg/kg, individual mice, read-out: C0): 2570 ng/mL
- AUC(0-inf) [1, 4]: 258 ng·h/mL
- AUC(0-t) [1, 4]: 255 ng·h/mL
- half-life [1, 4]: 88.8 min
- C0 ([1]; CD1, mouse, plasma, iv, 3 mg/kg, mean, read-out: C0): 2570 ng/mL
- MRT inf ([1]; CD1, mouse, plasma, iv, 3 mg/kg, mean, read-out: MRTInf —obs): 17.2 min
- Vd ([1]; CD1, mouse, plasma, iv, 3 mg/kg, mean, read-out: Vss —obs): 3.26 L/kg
- AUCInf ([1]; individual mice): 301 ng·h/mL and 206 ng·h/mL
- AUClast ([1]; individual mice): 298 ng·h/mL and 205 ng·h/mL
- AUC—% Extrap_obs ([1]; individual mice): 1.59% and 1.03% and 0.662%
- C0 ([1]; individual mice): 3016 ng/mL and 2115 ng/mL
- Cl_obs ([1]; individual mice): 187 mL/min/kg and 166 mL/min/kg and 242 mL/min/kg
- MRTInf —obs ([1]; individual mice): 30.1 min and 13.8 min and 7.68 min
- T1/2 ([1]; individual mice): 163 min and 76.2 min and 26.5 min
- Vss —obs ([1]; individual mice): 5.63 L/kg and 2.29 L/kg and 1.87 L/kg
- AUClast/D ([1]; mean): 85.1 kg·ng·h/mL/mg
- AUC—% Extrap_obs ([1]; mean): 1.09%
- Cl_obs ([1]; mean): 198 mL/min/kg
- Uptake Ratio (−/+Inhibitor) (OATP1B3; OATP1B3-HEK293 cells, inhibitor Rifamycin SV): 11.57
- Uptake Ratio (Transporter(−Inhibitor)/Mock(−Inhibitor)) (OATP1B3; OATP1B3-HEK293 vs Mock): 24.80
- Liver concentration ([2]; 0.25 h, individual animals): 428 ng/g and 372 ng/g and 199 ng/g
- Ratio (liver/plasma) ([2]; 0.25 h, individual animals): 41.6 and 19.1 and 10.8
- Liver concentration ([2]; 0.5 h, individual animals): 241 ng/g and 321 ng/g
- Ratio (liver/plasma) ([2]; 0.5 h, individual animals): 24.3 and 35.6
- Liver concentration ([2]; 1 h, individual animals): 237 ng/g and 404 ng/g
- Ratio (liver/plasma) ([2]; 1 h, individual animals): 39.9 and 43.6
- Liver concentration ([2]; 2 h, individual animals): 377 ng/g and 299 ng/g and 108 ng/g
- Ratio (liver/plasma) ([2]; 2 h, individual animals): 65.8 and 47.3
- Liver concentration ([2]; 4 h, individual animals): 128 ng/g and 179 ng/g
- Ratio (liver/plasma) ([2]; 4 h, individual animals): 42.2 and 43.5
- Liver concentration ([2]; 6 h, individual animals): 130 ng/g and 43.2 ng/g and 55.6 ng/g
- Ratio (liver/plasma) ([2]; 6 h, individual animals): 28.2 and 23.0
- Liver concentration ([2]; 8 h, individual animals): 106 ng/g and 37.6 ng/g and 45.6 ng/g
- Ratio (liver/plasma) ([2]; 8 h, individual animals): 17.8
- concentration at 0.5 h ([2]; CD1, mouse, liver, oral, 8 mg/kg, 0.5 h, individual animals): 366 ng/g
- concentration at 1 h ([2]; CD1, mouse, liver, oral, 8 mg/kg, 1 h, individual animals): 259 ng/g
- concentration at 4 h ([2]; CD1, mouse, liver, oral, 8 mg/kg, 4 h, individual animals): 106 ng/g
- Kp at 0.25 h ([2]; CD1, mouse, liver/plasma, oral, 8 mg/kg, 0.25 h, mean, read-out: Ratio (liver/plasma) Mean): 23.8
- Kp at 0.5 h ([2]; CD1, mouse, liver/plasma, oral, 8 mg/kg, 0.5 h, individual animals, read-out: Ratio (liver/plasma)): 38.9
- Kp at 0.5 h ([2]; CD1, mouse, liver/plasma, oral, 8 mg/kg, 0.5 h, mean, read-out: Ratio (liver/plasma) Mean): 32.9
- Kp at 1 h ([2]; CD1, mouse, liver/plasma, oral, 8 mg/kg, 1 h, individual animals, read-out: Ratio (liver/plasma)): 63.1
- Kp at 1 h ([2]; CD1, mouse, liver/plasma, oral, 8 mg/kg, 1 h, mean, read-out: Ratio (liver/plasma) Mean): 48.9
- Kp at 2 h ([2]; CD1, mouse, liver/plasma, oral, 8 mg/kg, 2 h, individual animals, read-out: Ratio (liver/plasma)): 69.6
- Kp at 2 h ([2]; CD1, mouse, liver/plasma, oral, 8 mg/kg, 2 h, mean, read-out: Ratio (liver/plasma) Mean): 60.9
- Kp at 4 h ([2]; CD1, mouse, liver/plasma, oral, 8 mg/kg, 4 h, individual animals, read-out: Ratio (liver/plasma)): 28.9
- Kp at 4 h ([2]; CD1, mouse, liver/plasma, oral, 8 mg/kg, 4 h, mean, read-out: Ratio (liver/plasma) Mean): 38.2
- Kp at 6 h ([2]; CD1, mouse, liver/plasma, oral, 8 mg/kg, 6 h, individual animals, read-out: Ratio (liver/plasma)): 45.6
- Kp at 6 h ([2]; CD1, mouse, liver/plasma, oral, 8 mg/kg, 6 h, mean, read-out: Ratio (liver/plasma) Mean): 32.3
- Kp at 8 h ([2]; CD1, mouse, liver/plasma, oral, 8 mg/kg, 8 h, individual animals, read-out: Ratio (liver/plasma)): 15.9
- Kp at 8 h ([2]; CD1, mouse, liver/plasma, oral, 8 mg/kg, 8 h, mean, read-out: Ratio (liver/plasma) Mean): 16.8
